As usually defined, the melting point is the temperature, or range, at which the solid turns liquid. `CSc1nc(-c2ccc(=O)n(C(C)C)n2)c(-c2ccccc2)nc1N` [Example 54, 6-[5-amino-6-(methylthio)-3-phenyl-2-pyrazinyl]-2-isopropyl-3(2H)-pyridazinone]: the melting point lay within 211 to 214 °C.

`CC(C)n1nc(-c2nc([S+](C)[O-])c(N)nc2-c2ccccc2)ccc1=O` (stereo not drawn) [Example 55, 6-[5-amino-6-(methylsulfinyl)-3-phenyl-2-pyrazinyl]-2-isopropyl-3(2H)-pyridazinone] registered a melting point of 225 to 227 °C.

With `CC(C)n1nc(-c2nc(S(C)(=O)=O)c(N)nc2-c2ccccc2)ccc1=O` [Example 55, 6-[5-amino-6-(methylsulfonyl)-3-phenyl-2-pyrazinyl]-2-isopropyl-3(2H)-pyridazinone], the melting point fell in the range of 249 to 251 °C.

As to `CCn1nc(-c2nc(C(=O)O)c(NCc3ccc(OC)cc3)nc2-c2ccccc2)ccc1=O` [Example 57, 6-(1-ethyl-6-oxo-1,6-dihydro-3-pyridazinyl)-3-[(4-methoxybenzyl)amino]-5-phenyl-2-pyrazinecarboxylic acid], the melting point is over 250 °C.

`CCn1nc(-c2ncc(NCc3ccc(OC)cc3)nc2-c2ccccc2)ccc1=O` [Example 58, 2-ethyl-6-{5-[(4-methoxybenzyl)amino]-3-phenyl-2-pyrazinyl}-3(2H)-pyridazinone]: the melting point fell in the range of 148 to 150 °C.

Consider `CCn1nc(-c2ncc(N)nc2-c2ccccc2)ccc1=O` [Example 59, 6-(5-amino-3-phenyl-2-pyrazinyl)-2-ethyl-3(2H)-pyridazinone], for which the melting point lay in the range of 227 to 229 °C.

Take `Cn1nc(-c2nc(Br)c(N)nc2-c2ccccc2)ccc1=O` [Example 60, 6-(5-amino-6-bromo-3-phenyl-2-pyrazinyl)-2-methyl-3(2H)-pyridazinone]: the melting point was in the range of 220 to 222 °C.

For `CSc1nc(-c2ccc(=O)n(C)n2)c(-c2ccccc2)nc1N` [Example 61, 6-[5-amino-6-(methylthio)-3-phenyl-2-pyrazinyl]-2-methyl-3(2H)-pyridazinone], the melting point was 204 to 205.5 °C.

Regarding `Cn1nc(-c2nc([S+](C)[O-])c(N)nc2-c2ccccc2)ccc1=O` (stereo not drawn) [Example 62, 6-[5-amino-6-(methylsulfinyl)-3-phenyl-2-pyrazinyl]-2-methyl-3(2H)-pyridazinone], the melting point is 209 to 210.5 °C.

`Cn1nc(-c2nc(S(C)(=O)=O)c(N)nc2-c2ccccc2)ccc1=O` [Example 62, 6-[5-amino-6-(methylsulfonyl)-3-phenyl-2-pyrazinyl]-2-methyl-3(2H)-pyridazinone] returned a melting point of 231 to 233 °C.

As for `CC(C)n1nc(-c2ncc(N=S(C)C)nc2-c2ccccc2)ccc1=O` [Example 65, 6-{5-[(dimethyl-lambda˜4˜-sulfanylidene)amino]-3-phenyl-2-pyrazinyl}-2-isopropyl-3(2H)-pyridazinone], the melting point fell in the range of 190 to 194 °C.

Regarding `CC(C)n1nc(-c2nc(Br)c(N=O)nc2-c2ccccc2)ccc1=O` [Example 67, 6-(6-bromo-5-nitroso-3-phenyl-2-pyrazinyl)-2-isopropyl-3(2H)-pyridazinone], the melting point was in the range of 164 to 166 °C.

In turn, `CC(C)n1nc(-c2nc(O)cnc2-c2ccccc2)ccc1=O` [Example 68, 6-(6-hydroxy-3-phenyl-2-pyrazinyl)-2-isopropyl-3(2H)-pyridazinone] registered a melting point of 198 to 200 °C.

Molecule `COCOCC#Cc1nc(-c2ccc(=O)n(C(C)C)n2)c(-c2ccccc2)nc1N` [Example 71, 6-{5-amino-6-[3-(methoxymethoxy)-1-propyn-1-yl]-3-phenyl-2-pyrazinyl}-2-isopropyl-3(2H)-pyridazinone] yielded a melting point of 133 to 135 °C.

`CC(C)n1nc(-c2nc(C#CC3(O)CCCCC3)c(N)nc2-c2ccccc2)ccc1=O` [Example 73, 6-{5-amino-6-[(1-hydroxycyclohexyl)ethynyl]-3-phenyl-2-pyrazinyl}-2-isopropyl-3(2H)-pyridazinone]: the melting point lay in the range of 238 to 240 °C.

The record behind these values is patent US7265120B2, “Pyrazine derivatives and pharmaceutical use thereof” (Astellas Pharma Inc., priority 2004, dated 2007).
